{
  "source": "patent EP0778733B1",
  "about": "“A BASIC PROTEIN COMPOSITION FOR KILLING OR INHIBITING MICROBIAL CELLS” (NOVO NORDISK A/S, priority 1994, dated 1996)",
  "assay_type_in_all_cases": "cell-based",
  "key": {"[1]": {"test_system": "Pseudomonas aeruginosa", "assay": "Impedimetric MIC / detection time, growing cells in TSB (Bactometer)", "parameters": "key: n.e.: not effective", "settings": "Table 4, strain printed as Pseudomonas aeroginosa; determined as in Example 1 (inhibition of at least 100 hours); n.e. = not effective", "description": "(§1) Volumes (1.0 ml) of TSB medium were added to Bactometer® wells. Protamine solutions (0.1 ml) were transferred to the wells which were sealed, connected to the Bactometer B123-2 (bioMérieux UK ltd., UK) and incubated at 25°C until a significant detectable increase in the electrical conductivity of the medium was registered and the detection time (DT) was recorded (maximum 100 h). Detection usually occurs when the cell concentration reaches 10^6-10^7 cfu/ml. For the Gram-positive strains the capacitance signal was monitored, while change in conductance was used for Gram-negative strains.\n(§2) was measured in the Bactometer modules. The wells (containing 1 ml TSB and 0.1 ml protamine solution) were inoculated with 0.1 ml from a 10^-4 dilution of an inoculum culture, giving a final cell concentration in the well of approximately 10^3 cfu/ml. The concentration of protamine varied from 1 to 4000 µg/ml depending on the sensitivity of the strain investigated.\n(§3) Minimum Inhibition Concentration (MIC) was determined as the lowest concentration of protamine resulting in absence of a DT.\n(§4) When no DT was measured, the lethal/inhibitory effect on the cells were tested by plating the total well volume.\n(§5) The minimum inhibition concentration (MIC) of various-substances was determined as described in Example 1. […]"}, "[2]": {"test_system": "Pseudomonas fluorescens", "assay": "Impedimetric MIC / detection time, growing cells in TSB (Bactometer)", "parameters": "key: n.e.: not effective", "settings": "Table 4, determined as in Example 1 (inhibition of at least 100 hours); n.e. = not effective", "description": "as §1, §2, §3, §4, §5"}, "[3]": {"test_system": "Escherichia coli 0157:H7", "assay": "Impedimetric MIC / detection time, growing cells in TSB (Bactometer)", "settings": "Table 4, strain printed as Escherichia coli; determined as in Example 1 (inhibition of at least 100 hours); n.e. = not effective", "description": "as §1, §2, §3, §4\n(§6) The minimum inhibition concentration (MIC) of various-substances was determined as described in Example 1.\n(§7) The following substances were tested: protamine (A), protamine sulphate (B), a peroxidase enzyme system (i.e. lactoperoxidase/glucoseoxidase (C)), subtilisin A (D), polyarginine (E) having an average molecular weight of about 6 kD and lysozyme (F) (150 000 units/mg; Johansen, C. et al., 1994)."}, "[4]": {"test_system": "Staphylococcus aureus", "assay": "Impedimetric MIC / detection time, growing cells in TSB (Bactometer)", "settings": "Table 4, determined as in Example 1 (inhibition of at least 100 hours); n.e. = not effective", "description": "as §1, §2, §3, §4, §6, §7"}, "[5]": {"test_system": "Vibrio paraheamolyticus", "assay": "Impedimetric MIC / detection time, growing cells in TSB (Bactometer)", "settings": "Table 4, determined as in Example 1 (inhibition of at least 100 hours); n.e. = not effective", "description": "as §1, §2, §3, §4, §6, §7"}, "[6]": {"test_system": "Listeria monocytogenes", "assay": "Impedimetric MIC / detection time, growing cells in TSB (Bactometer)", "settings": "Table 4, determined as in Example 1 (inhibition of at least 100 hours); n.e. = not effective", "description": "as §1\n(§8) was measured in the Bactometer modules. […]\nas §3, §4, §5\n(§9) Further, the influence of cell concentration on the anti-bacterial effect of protamine was tested using the materials and methods described in Example 1, i.e.the correlation between cell concentration and protamine concentration has been measured by the impedimetric assay."}, "[7]": {"test_system": "Shewanella putrefaciens", "assay": "Impedimetric MIC / detection time, growing cells in TSB (Bactometer)", "settings": "Table 4, determined as in Example 1 (inhibition of at least 100 hours); n.e. = not effective", "description": "as §1, §8, §3, §4, §5, §9"}, "[8]": {"test_system": "all the tested strains", "assay": "Comparative impedimetric MIC, all tested strains of Table 4", "settings": "summary of Table 4", "description": "as §6, §7"}, "[9]": {"test_system": "Pseudomonas fluorescens", "assay": "Synergy growth inhibition experiments, impedimetric, factorial design", "settings": "each alone: protamine 250 µg/ml, polylysine 500 µg/ml, lactoperoxidase 2 U/ml, glucose oxidase 2 U/ml", "description": "Impedimetric measurements carried out as described in example 1 have shown an synergistic effect between basic peptides as protamine, polyarginine or polylysine and lysozyme and/or glucose oxidase and/or the lactoperoxidase enzyme system depending on pH and NaCl concentration.\nGrowth inhibition experiments were conducted, wherein synergistic and additional effects were determined by mixing compounds in low concentrations not having any activity on their own and using a factoral design. The effects were measured as growth inhibition or a 100% bacteriocidal effect with a total kill of the inoculum."}},
  "data": [
    {"substance": "polyarginine", "values": [
      {"measurement": "Minimum Inhibitory Concentration", "setting": "[1]", "value": "n.e."},
      {"measurement": "Minimum Inhibitory Concentration", "setting": "[2]", "value": "n.e."},
      {"measurement": "Minimum Inhibitory Concentration", "setting": "[3]", "value": 1500, "unit": "µg/mL"},
      {"measurement": "Minimum Inhibitory Concentration", "setting": "[4]", "value": 1500, "unit": "µg/mL"},
      {"measurement": "Minimum Inhibitory Concentration", "setting": "[5]", "value": 2000, "unit": "µg/mL"},
      {"measurement": "Minimum Inhibitory Concentration", "setting": "[6]", "value": 2000, "unit": "µg/mL"},
      {"measurement": "Minimum Inhibitory Concentration", "setting": "[7]", "value": 1500, "unit": "µg/mL"},
      {"measurement": "effectiveness for inhibiting the tested strains", "setting": "[8]", "value": "effective for inhibiting all strains but Pseudomonas spp."}
    ]},
    {"substance": "polylysine", "values": [
      {"measurement": "growth inhibition, compound alone", "setting": "[9]", "value": "not inhibited"}
    ]}
  ]
}
